Biological target: T1, Serine/threonine-protein kinase Chk1 (Homo sapiens, UniProt O14757)
T1 sequence (O14757 whole entry): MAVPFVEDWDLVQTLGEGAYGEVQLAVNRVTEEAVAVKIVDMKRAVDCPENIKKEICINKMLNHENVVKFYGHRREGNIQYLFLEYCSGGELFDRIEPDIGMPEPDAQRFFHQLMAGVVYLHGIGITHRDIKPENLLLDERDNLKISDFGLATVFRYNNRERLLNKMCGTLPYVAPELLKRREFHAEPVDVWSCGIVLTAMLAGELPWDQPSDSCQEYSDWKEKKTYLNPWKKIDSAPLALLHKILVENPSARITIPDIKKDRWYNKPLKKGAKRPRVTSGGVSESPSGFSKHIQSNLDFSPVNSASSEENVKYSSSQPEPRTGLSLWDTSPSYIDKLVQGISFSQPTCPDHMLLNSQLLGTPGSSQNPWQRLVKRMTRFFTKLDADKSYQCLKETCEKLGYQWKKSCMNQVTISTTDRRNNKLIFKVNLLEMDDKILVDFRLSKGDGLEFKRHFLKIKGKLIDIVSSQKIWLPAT
Test: Chk1 Enzymatic Assay
Conditions: pH 7.5; 30 °C
Description: Chk1 kinase activity was assayed in reaction buffer containing substrate peptide, enzyme, and inhibitor in the presence of 100uM ATP/[gamma-33P] ATP. 33P incorporation was measured using a Perkin-Elmer Trilux scintillation counter. The IC50 is the inhibitor concentration, which inhibits 50% of kinase activity that catalyzes the transfer of the terminal phosphate from 33P labeled ATP to the substrate.

| IC50 [µM] | Structure (SMILES) |
| --- | --- |
| 15.8 | NCCCNc1nc(F)c(Cl)c(C2c3ccccc3Sc3ccccc32)c1F [N-(3-aminopropyl)-5-chloro-3,6-difluoro-4-(9H-thioxanthen-9-yl)pyridin-2-amine] |
| 20.4 | Cc1[nH]nc2c1C(c1ccc(O)c(O)c1)C(C#N)C(=N)O2 (stereo unspecified) [6-amino-4-(3,4-dihydroxyphenyl)-3-methyl-1H,4H-pyrano[2,3-c]pyrazole-5-carbonitrile] |
| 20.1 | Clc1cc2c(cc1CN=Nc1nnc3c(n1)[nH]c1ccccc13)OCO2 [(1E)-1-[(6-chloro-2H-1,3-benzodioxol-5-yl)methylidene]-2-{5H-[1,2,4]triazino[5,6-b]indol-3-yl}hydrazine] |

More lines, now with the values behind:

| Structure (SMILES) | IC50 [µM] |
| --- | --- |
| NN1C(=O)C([c-]2c(=O)[nH]c3ccc([N+](=O)[O-])cc32)=[S+]C1=S [3-amino-5-[(3Z)-5-nitro-2-oxo-2,3-dihydro-1H-indol-3-ylidene]-2-sulfanylidene-1,3-thiazolidin-4-one] | 72.7 |
| COc1ccc(Cl)cc1-c1nnc(Nc2ccc(C(=O)O)cc2)s1 [4-{[5-(5-chloro-2-methoxyphenyl)-1,3,4-thiadiazol-2-yl]amino}benzoic acid] | 26.6 |
| Nc1ncnc2nc(SCC(=O)O)[nH]c12 [2-[(6-amino-9H-purin-8-yl)sulfanyl]acetic acid] | 31.8 |
